According to patent US20120295907A1, “INSECTICIDAL COMPOUNDS” (SYNGENTA CROP PROTECTION, LLC, priority 2009, published 2012):

Experiments:
Type in all cases: in vivo
[1] = test system: Spodoptera littoralis; assay: Spodoptera littoralis (Egyptian Cotton Leafworm) cotton leaf disc spray test; settings: foliar, 72 h, 200 ppm spray on cotton leaf discs, L1 larvae, mortality, feeding behavior, growth regulation 3 DAT
[2] = test system: Plutella xylostella; assay: Plutella xylostella (Diamond Back Moth) artificial diet MTP test; settings: 144 h, 200 ppm (concentration in well 18 ppm), L2 larvae, 6 days, larval mortality, growth regulation
[3] = test system: Diabrotica balteata; assay: Diabrotica balteata (Corn Root Worm) artificial diet MTP test; settings: 120 h, 200 ppm (concentration in well 18 ppm), L2 larvae, 5 days, larval mortality, growth regulation
[4] = test system: Thrips tabaci; assay: Thrips tabaci (Onion Thrips) sunflower leaf disc spray test; settings: foliar, 168 h, 200 ppm spray on sunflower leaf discs, population of mixed ages, 7 days, mortality
[5] = test system: Tetranychus urticae; assay: Tetranychus urticae (Two-Spotted Spider Mite) bean leaf disc spray test; settings: foliar, 192 h, 200 ppm spray on bean leaf discs, mite populations of mixed ages, 8 days, egg, larval and adult mortality, read-out: control of Tetranychus urticae
[6] = test system: Heliothis virescens; assay: Heliothis virescens (Tobacco Budworm) egg test on artificial diet; settings: 96 h, 200 ppm (concentration in well 18 ppm), eggs 0-24 h old on artificial diet, 4 days, egg mortality, larval mortality, growth regulation

Measured: pest or weed control at 200 ppm

CCc1cc(C(F)(C(F)(F)F)C(F)(F)C(F)(F)F)cc(C)c1NC(=O)c1cccc(NC(=O)c2ccc(C#N)cc2C)c1OC (stereo not drawn) [A5, N-[2-ethyl-4-(1,2,2,3,3,3-hexafluoro-1-trifluoromethylpropyl)-6-methyl-phenyl]-3-(4-cyano-2-methylbenzoylamino)-2-methoxybenzamide]
not listed: [6]
≥ 80%: all other assays above

CCc1cc(C(F)(C(F)(F)F)C(F)(F)C(F)(F)F)cc(C)c1NC(=O)c1cccc(NC(=O)c2cccnc2Cl)c1OC (stereo not drawn) [A6]
≥ 80%: all assays above

CCc1cc(C(F)(C(F)(F)F)C(F)(F)C(F)(F)F)cc(C)c1NC(=O)c1cccc(NC(=O)c2cccnc2F)c1OC (stereo not drawn) [A7]
≥ 80%: all assays above

CCc1cc(C(F)(C(F)(F)F)C(F)(F)C(F)(F)F)cc(C)c1NC(=O)c1cccc(NC(=O)c2cc(Cl)ccc2Cl)c1OC (stereo not drawn) [A16]
≥ 80%: all assays above

COc1c(NC(=O)c2ccc(C#N)cc2C)cccc1C(=O)Nc1c(Cl)cc(C(F)(C(F)(F)F)C(F)(F)C(F)(F)F)cc1Br (stereo not drawn) [B1, N-[2-bromo-6-chloro-4-(1,2,2,3,3,3-hexafluoro-1-trifluoromethylpropyl)-phenyl]-3-(4-cyano-2-methylbenzoylamino)-2-methoxybenzamide]
not listed: [3]
≥ 80%: all other assays above

COc1c(NC(=O)c2ccc(F)cc2C)cccc1C(=O)Nc1c(Cl)cc(C(F)(C(F)(F)F)C(F)(F)C(F)(F)F)cc1Br (stereo not drawn) [B9]
≥ 80%: all assays above

COc1c(NC(=O)c2snnc2C)cccc1C(=O)Nc1c(Cl)cc(C(F)(C(F)(F)F)C(F)(F)C(F)(F)F)cc1Br (stereo not drawn) [B21]
≥ 80%: all assays above

COc1c(NC(=O)c2ccc(Cl)cc2[N+](=O)[O-])cccc1C(=O)Nc1c(Cl)cc(C(F)(C(F)(F)F)C(F)(F)C(F)(F)F)cc1Br (stereo not drawn) [B64]
≥ 80%: all assays above

COc1c(NC(=O)c2ccc(Br)c(C)c2)cccc1C(=O)Nc1c(Cl)cc(C(F)(C(F)(F)F)C(F)(F)C(F)(F)F)cc1Br (stereo not drawn) [B65]
not listed: [3]
≥ 80%: all other assays above

COc1c(NC(=O)c2ccc(Cl)s2)cccc1C(=O)Nc1c(Cl)cc(C(F)(C(F)(F)F)C(F)(F)C(F)(F)F)cc1Br (stereo not drawn) [B67]
≥ 80%: all assays above

COc1c(NC(=O)c2cc(F)c(F)cc2Cl)cccc1C(=O)Nc1c(Cl)cc(C(F)(C(F)(F)F)C(F)(F)C(F)(F)F)cc1Br (stereo not drawn) [B73]
≥ 80%: all assays above

COc1c(NC(=O)c2cc(C)ccc2[N+](=O)[O-])cccc1C(=O)Nc1c(Cl)cc(C(F)(C(F)(F)F)C(F)(F)C(F)(F)F)cc1Br (stereo not drawn) [B74]
≥ 80%: all assays above

COc1c(NC(=O)c2cccnc2C(F)(F)F)cccc1C(=O)Nc1c(Cl)cc(C(F)(C(F)(F)F)C(F)(F)C(F)(F)F)cc1Br (stereo not drawn) [B81]
≥ 80%: all assays above

COc1c(NC(=O)c2cc(Cl)nc(Cl)c2)cccc1C(=O)Nc1c(Cl)cc(C(F)(C(F)(F)F)C(F)(F)C(F)(F)F)cc1Br (stereo not drawn) [B97]
≥ 80%: all assays above

COc1c(NC(=O)c2c(Cl)cccc2[N+](=O)[O-])cccc1C(=O)Nc1c(Cl)cc(C(F)(C(F)(F)F)C(F)(F)C(F)(F)F)cc1Br (stereo not drawn) [B101]
≥ 80%: all assays above

COc1c(NC(=O)c2ccc(Cl)c(OC)c2Cl)cccc1C(=O)Nc1c(Cl)cc(C(F)(C(F)(F)F)C(F)(F)C(F)(F)F)cc1Br (stereo not drawn) [B109]
≥ 80%: all assays above

COc1c(NC(=O)c2cc(F)ccc2Cl)cccc1C(=O)Nc1c(Cl)cc(C(F)(C(F)(F)F)C(F)(F)C(F)(F)F)cc1Br (stereo not drawn) [B154]
not listed: [6]
≥ 80%: all other assays above

COc1c(NC(=O)c2c(F)cccc2F)cccc1C(=O)Nc1c(Cl)cc(C(F)(C(F)(F)F)C(F)(F)C(F)(F)F)cc1Br (stereo not drawn) [B172]
not listed: [3]
≥ 80%: all other assays above

COc1c(NC(=O)c2c(F)cc(C#N)cc2F)cccc1C(=O)Nc1c(Cl)cc(C(F)(C(F)(F)F)C(F)(F)C(F)(F)F)cc1Br (stereo not drawn) [B176]
not listed: [3]
≥ 80%: all other assays above

COc1c(NC(=O)c2ccc([N+](=O)[O-])c(C)c2)cccc1C(=O)Nc1c(Cl)cc(C(F)(C(F)(F)F)C(F)(F)C(F)(F)F)cc1Br (stereo not drawn) [B190]
not listed: [3]
≥ 80%: all other assays above

COc1c(NC(=O)c2ccc([N+](=O)[O-])cc2F)cccc1C(=O)Nc1c(Cl)cc(C(F)(C(F)(F)F)C(F)(F)C(F)(F)F)cc1Br (stereo not drawn) [B191]
not listed: [3]
≥ 80%: all other assays above

COc1c(NC(=O)c2ccc(C(F)(F)F)cc2)cccc1C(=O)Nc1c(Cl)cc(C(F)(C(F)(F)F)C(F)(F)C(F)(F)F)cc1Cl (stereo not drawn) [C15]
not listed: [3]
≥ 80%: all other assays above
